# Reference: patent US12286632B2, “Rationally-designed synthetic peptide shuttle agents for delivering polypeptide cargos from an extracellular space to the cytosol and/or nucleus of a target eukaryotic cell, uses thereof, methods and kits relating to same” (Feldan Bio Inc., priority 2016, dated 2025)
# Ends that are not written are not given here. Peptide text beside a SMILES is read from it.
# Experiments:
# in vitro [1] = conditions: human, HeLa cells
# HeLa cells = assay: GFP-NLS protein transduction assay (flow cytometry: Pos cells %, viability %, relative fluorescence intensity; microscopy); conditions: for Mean % cells with GFP signal (±St Dev.; n = 3): Table B3, HeLa cells, GFP-NLS cargo
# in vitro [2] = conditions: human, HeLa cells; remark: listed apart in the source
# [3] = Cell viability (%) (±St. Dev.; n = 3)
# [4] = Table 10.3a, Protocol B, HeLa, shuttle 50 μM, GFP-NLS 5 μM, 10 seconds
# [5] = Table 10.3e, Protocol B, HeLa, shuttle 20 μM, GFP-NLS 5 μM, 1 minute
# [6] = Cell viability (%) (±St Dev.; n = 3)
compound,measurement,setting,value
CSCC[C@H](NC(=O)[C@H](CCCCN)NC(=O)[C@H](CC(N)=O)NC(=O)[C@H](CC(C)C)NC(=O)[C@H](Cc1c[nH]c2ccccc12)NC(=O)[C@H](Cc1ccccc1)NC(=O)[C@H](CS)NC(=O)[C@H](CC(C)C)NC(=O)[C@H](Cc1ccccc1)NC(=O)[C@H](CCC(N)=O)NC(=O)[C@H](Cc1c[nH]cn1)NC(=O)[C@H](Cc1c[nH]cn1)NC(=O)[C@H](Cc1c[nH]cn1)NC(=O)[C@H](Cc1c[nH]cn1)NC(=O)[C@H](Cc1c[nH]cn1)NC(=O)[C@@H](N)Cc1c[nH]cn1)C(=O)NCC(=O)N[C@@H](CCCCN)C(=O)N[C@@H](Cc1c[nH]cn1)C(=O)N[C@@H](CC(N)=O)C(=O)N[C@H](C(=O)N[C@H](C(=O)N[C@@H](Cc1c[nH]c2ccccc12)C(=O)N[C@@H](Cc1c[nH]cn1)C(=O)NCC(=O)N[C@@H](CCCNC(=N)N)C(=O)N[C@@H](Cc1c[nH]cn1)C(=O)N[C@@H](CC(C)C)C(=O)N[C@@H](CCCCN)C(=O)N[C@@H](CS)C(=O)N[C@@H](Cc1c[nH]cn1)C(=O)N[C@@H](CCCCN)C(=O)N[C@@H](CCCNC(=N)N)C(=O)NCC(=O)N[C@@H](CCCCN)C(=O)NCC(=O)O)C(C)C)[C@@H](C)O [FSN3] (H-HHHHHHQFLCFWLNKMGKHNTVWHGRHLKCHKRGKG-OH; N-terminus and C-terminus assumed),viability,in vitro [1]; [3],97.2 ± 2.03%
CC(C)C[C@H](NC(=O)[C@H](CC(C)C)NC(=O)[C@H](CCCNC(=N)N)NC(=O)[C@H](CCCNC(=N)N)NC(=O)[C@H](Cc1c[nH]c2ccccc12)NC(=O)[C@H](CC(C)C)NC(=O)[C@H](Cc1ccc(O)cc1)NC(=O)[C@H](CC(C)C)NC(=O)[C@H](CC(C)C)NC(=O)[C@H](Cc1c[nH]cn1)NC(=O)[C@H](Cc1c[nH]cn1)NC(=O)[C@H](Cc1c[nH]cn1)NC(=O)[C@H](Cc1c[nH]cn1)NC(=O)[C@H](Cc1c[nH]cn1)NC(=O)[C@@H](N)Cc1c[nH]cn1)C(=O)N[C@@H](CCCCN)C(=O)N[C@@H](Cc1ccccc1)C(=O)N[C@@H](Cc1c[nH]c2ccccc12)C(=O)N[C@@H](CS)C(=O)N[C@@H](C)C(=O)NCC(=O)N[C@@H](CCCNC(=N)N)C(=O)N[C@@H](CCCNC(=N)N)C(=O)N[C@H](C(=O)N[C@@H](Cc1ccc(O)cc1)C(=O)N[C@@H](C)C(=O)N[C@@H](CCCCN)C(=O)N[C@@H](CS)C(=O)N[C@@H](C)C(=O)N[C@@H](CCCCN)C(=O)N[C@@H](C)C(=O)N[C@@H](Cc1ccc(O)cc1)C(=O)NCC(=O)N[C@@H](CS)C(=O)N[C@@H](Cc1ccccc1)C(=O)O)C(C)C [FSN4] (H-HHHHHHLLYLWRRLLKFWCAGRRVYAKCAKAYGCF-OH; N-terminus and C-terminus assumed),viability,in vitro [1]; [3],90.5 ± 4.18%
same,Mean % cells with GFP signal (±St Dev.; n = 3),HeLa cells,5.84 ± 0.49%
"N=C(N)NCCC[C@H](NC(=O)[C@H](CCCNC(=N)N)NC(=O)[C@H](CCCNC(=N)N)NC(=O)[C@H](CCC(N)=O)NC(=O)[C@H](CCCNC(=N)N)NC(=O)[C@H](CCCNC(=N)N)NC(=O)[C@H](CCCCN)NC(=O)[C@H](CCCCN)NC(=O)[C@H](CCCNC(=N)N)NC(=O)CNC(=O)[C@@H](N)Cc1ccc(O)cc1)C(=O)O [TAT, reference compound]","viability at 10 s, 50 µM",in vitro [1],94.6 ± 0.44%
same,Mean % cells with GFP signal (±St. Dev.; n = 3),"HeLa cells; Table 10.4, Protocol B, HeLa, peptide 50 μM, GFP-NLS 5 μM, 10 seconds",1.1 ± 0.27%
same,"GFP-NLS transduction (flow cytometry, in words)","HeLa cells; peptide 50 μM, GFP-NLS 5 μM, 10 seconds, Protocol B",not able to successfully transduce GFP-NLS
CC[C@H](C)[C@H](NC(=O)[C@@H](NC(=O)[C@H](Cc1ccccc1)NC(=O)[C@@H](N)CCCCN)[C@@H](C)O)C(=O)N[C@H](C(=O)N[C@@H](Cc1ccccc1)C(=O)N1CCC[C@H]1C(=O)N[C@@H](Cc1c[nH]cn1)C(=O)N[C@@H](CC(N)=O)C(=O)N[C@@H](CCC(N)=O)C(=O)N[C@@H](CCCCN)C(=O)NCC(=O)N[C@@H](CC(N)=O)C(=O)N[C@@H](Cc1c[nH]c2ccccc12)C(=O)N[C@@H](CCCCN)C(=O)N[C@@H](CC(N)=O)C(=O)N[C@H](C(=O)N1CCC[C@H]1C(=O)N[C@@H](CO)C(=O)N[C@@H](CC(N)=O)C(=O)N[C@@H](Cc1ccc(O)cc1)C(=O)N[C@@H](Cc1c[nH]cn1)C(=O)N[C@@H](Cc1ccc(O)cc1)C(=O)N[C@@H](CS)C(=O)N1CCC[C@H]1C(=O)N[C@@H](Cc1ccc(O)cc1)C(=O)N[C@@H](C)C(=O)N[C@@H](CCCNC(=N)N)C(=O)N[C@@H](C)C(=O)N[C@@H](C)C(=O)N[C@@H](C)C(=O)N[C@@H](CCCNC(=N)N)C(=O)N[C@@H](CCC(N)=O)C(=O)N[C@@H](C)C(=O)N[C@@H](CCCNC(=N)N)C(=O)N[C@@H](C)C(=O)O)C(C)C)C(C)C [VSVG-PTD4],Cell viability (%) (±St. Dev.; n = 3),HeLa cells; [4],100%
same,viability,in vitro [2],96.2 ± 2.57%
CC(C)C[C@H](NC(=O)[C@H](C)NC(=O)[C@H](CCCCN)NC(=O)[C@H](C)NC(=O)[C@H](CC(C)C)NC(=O)[C@H](CCCCN)NC(=O)[C@H](C)NC(=O)[C@H](CCC(=O)O)NC(=O)[C@H](Cc1c[nH]c2ccccc12)NC(=O)CNC(=O)[C@@H](NC(=O)[C@@H]1CCCN1C(=O)[C@H](CCCNC(=N)N)NC(=O)[C@H](CC(C)C)NC(=O)[C@H](CS)NC(=O)[C@@H](N)CC(C)C)C(C)C)C(=O)N[C@@H](C)C(=O)N[C@@H](CCCCN)C(=O)N[C@@H](C)C(=O)N[C@@H](CC(C)C)C(=O)N[C@@H](C)C(=O)N[C@@H](CCCCN)C(=O)N[C@@H](Cc1c[nH]cn1)C(=O)N[C@@H](CC(C)C)C(=O)N[C@@H](C)C(=O)N[C@@H](CCCCN)C(=O)N[C@@H](C)C(=O)N[C@@H](CC(C)C)C(=O)N[C@@H](C)C(=O)N[C@@H](CCCCN)C(=O)N[C@@H](C)C(=O)N[C@@H](CC(C)C)C(=O)N[C@@H](CCCCN)C(=O)N[C@@H](C)C(=O)N[C@@H](CS)C(=O)N[C@@H](CCC(=O)O)C(=O)N[C@@H](C)C(=O)O [Xentry-KALA] (H-LCLRPVGWEAKLAKALAKALAKHLAKALAKALKACEA-OH),viability,in vitro [2],75.3 ± 4.29%
HAHHAHHAHKWKLFKKIGAVLKVLTTGYARAAARQARA [3HA-CM18-PTD4],Cell viability (%) (±St. Dev.; n = 3),HeLa cells; [5],43.6 ± 2.8%
same,viability,in vitro [2],51.5 ± 4.83%
HHHAHHHKWKLFKKIGAVLKVLTTGYARAAARQARA [HA-CM18-PTD4],Cell viability (%) (±St. Dev.; n = 3),HeLa cells; [5],68.3 ± 4.1%
same,viability,in vitro [2],53.2 ± 4.62%
HHHHHHFRKLWLAIVRAKK [FSN8],viability,in vitro [1]; [3],94.5 ± 3.72%
HHHHHHHHHHHHKWKLFKKIGAVLKVLTTGYARAAARQARA [12His-CM18-PTD4],Cell viability (%) (±St. Dev.; n = 3),HeLa cells; [5],33.4 ± 4.3%
same,viability,in vitro [2],97.5 ± 1.57%
HHHHHHKKALLALALHHLAHLALHLALALKKAYARAAARQARA [His--PTD4],Cell viability (%) (±St. Dev.; n = 3),HeLa cells; [4],98 ± 1.5%
HHHHHHKLKLRSRLKWGRTQLWRALAKKALLHHHHHH [FSN2],viability,in vitro [1]; [3],91.3 ± 4.66%
same,Mean % cells with GFP signal (±St Dev.; n = 3),HeLa cells,12.13 ± 2.06%
HHHHHHKRKKKRRAKKKRAWLYLALLLWALALHHHHHH [FSD3],viability,in vitro [1]; [6],91.1 ± 6.37%
HHHHHHKRKRRSKKRKLWTQGWLLLALLALAHHHHHH [FSN1],viability,in vitro [1],94.3 ± 3.07%
same,Mean % cells with GFP signal (±St Dev.; n = 3),HeLa cells,9.14 ± 0.93%
HHHHHHKRQLKRKLRKWKRLLRLLRLLARLWLHHHHHH [FSD4],viability,in vitro [1]; [6],86.1 ± 8.15%
HHHHHHKWAKLLRAFAKAIKKLYARLARRQARTGHHHHHH [FSD13],viability,in vitro [1]; [6],49.5 ± 5.13%
HHHHHHKWKLFKKIGAVLKVLTTGGWTLNSAGYLLKINLKALAALAKKIL [His-CM18-Transportan (TPT)],Cell viability (%) (±St. Dev.; n = 3),"HeLa cells; Table 10.1, Protocol B, HeLa, shuttle 50 μM, GFP-NLS 5 μM, 10 seconds",41.3 ± 3.3%
same,Cell viability (%) (±St. Dev.; n = 3),HeLa cells; [4],41.3 ± 3.29%
HHHHHHKWKLFKKIGAVLKVLTTGGWTLNSAGYLLKINLKALAALAKKIL [His-CM18-Transportan],viability,in vitro [2],11.9 ± 1.07%
